Test results from article PMC11672294, “The Antipsychotic Drug Aripiprazole Suppresses Colorectal Cancer by Targeting LAMP2a to Induce RNH1/miR‐99a/mTOR‐Mediated Autophagy and Apoptosis” (Advanced Science, 2024).
Counter-ions that a name gives are not always drawn.

Tested on: HT29
Details: 72 h, relative to DMSO, 10 µM, Relative cell viability (%)
Source text: To investigate the key signaling pathways and biological processes involved in CRC progression, we analyzed the National Center for Biotechnology Information Gene Expression Omnibus (GEO) dataset GSE115313, which included 42 CRC and paired normal tissues (Figure 1A). […] Next, we performed an Annexin V‐fluorescein isothiocyanate (FITC)/propidium iodide (PI) staining assay to determine the effect of aripiprazole on apoptosis in CRC cells. […] A) Principal component analysis of GEO dataset (GSE115313), which includes 42 CRC and paired normal tissues. B) Gene Ontology pathway analysis of the DEPs between CRC and paired normal tissues. […] D) Schematic diagram for identifying anticancer drugs amongst an US Food and Drug Administration‐approved small‐molecule library (616 compounds) using WST‐1 assay. E) HT29 cells were treated with the 616 drugs (10 µM) individually or with dimethyl sulfoxide for 72 h, followed by WST‐1 assay. […] J) Mice bearing HT29‐derived tumor xenografts were intragastrically administered with aripiprazole (10 or 20 mg kg^−1) once every 2 d, n = 6 mice/group. […] Bars, SD; ^* p < 0.05; ^** p < 0.01; ^*** p < 0.001; ns, no significant difference. The WST‐1 Cell Proliferation and Cytotoxicity Assay Kit (Beyotime Biotechnology, Shanghai, China) was used to measure cell viability, as described previously.^[ [10] ^] CRC cells were seeded into 96‐well plates and treated with different drug concentrations. Following that, WST‐1 was added to the plate and incubated with the cells for 2 h, at 37 °C. Absorbance at the wavelength of 450 nm was measured using an automated microplate spectrophotometer (BioTek Instruments, Winooski, VT, USA).

SMILES | Relative cell viability (%)
COc1ccc(C[C@@H]2c3cc(OC)c(OC)cc3CC[N@+]2(C)CCC(=O)OCCCCCOC(=O)CC[N@@+]2(C)CCc3cc(OC)c(OC)cc3[C@H]2Cc2ccc(OC)c(OC)c2)cc1OC [Cisatracurium Besylate] | 127.3%

Same assay, conditions: 72 h, relative to DMSO; 10 µM

SMILES | Relative cell viability (%)
CC(C)(C)NCC(O)COc1cccc2c1CCC(=O)N2 (stereo not drawn) [Carteolol HCl] | 86.67%
COc1ccccc1OCCNCC(O)COc1cccc2[nH]c3ccccc3c12 (stereo not drawn) [Carvedilol] | 24.58%
CO/N=C(\C(=O)N[C@@H]1C(=O)N2C(C(=O)OCOC(=O)C(C)(C)C)=C(/C=C\c3scnc3C)CS[C@H]12)c1csc(N)n1 [Cefditoren Pivoxil] | 66.53%
Cc1ccc(-c2cc(C(F)(F)F)nn2-c2ccc(S(N)(=O)=O)cc2)cc1 [Celecoxib] | 69.63%
CCS(=O)(=O)N1CCN(c2ccc(Nc3ncc(C(N)=O)c(NC4CC4)n3)cc2)CC1 [Cerdulatinib (PRT062070, PRT2070)] | 36.75%
CCCCCCCCCCCCCCCC[N+](C)(C)C [Cetrimonium Bromide (CTAB)] | 18.48%
CCCCCCCCCCCCCCCC[n+]1ccccc1 [Cetylpyridinium Chloride] | 5.758%
C[C@H](CCC(=O)O)[C@H]1CC[C@H]2[C@@H]3[C@H](O)C[C@@H]4C[C@H](O)CC[C@]4(C)[C@H]3CC[C@]12C [Chenodeoxycholic Acid] | 60.17%
[H]/N=C(\N/C(=N/[H])NCCCCCCNC(=N)NC(=N)Nc1ccc(Cl)cc1)Nc1ccc(Cl)cc1 [Chlorhexidine HCl] | 28.64%
CN1C(=O)CCS(=O)(=O)C1c1ccc(Cl)cc1 (stereo not drawn) [Chlormezanone] | 142.8%
Cc1cc(O)ccc1Cl [Chlorocresol] | 65.76%
Oc1c(Cl)cc(Cl)c2cccnc12 [Chloroxine] | 69.07%
CN(C)CCC(c1ccc(Cl)cc1)c1ccccn1 (stereo not drawn) [Chlorpheniramine Maleate] | 102.1%
CN(C)CCCN1c2ccccc2Sc2ccc(Cl)cc21 [Chlorpromazine HCl] | 93.71%
CCCNC(=O)NS(=O)(=O)c1ccc(Cl)cc1 [Chlorpropamide] | 79.39%
CN(C)CC/C=C1/c2ccccc2Sc2ccc(Cl)cc21 [Chlorprothixene] | 28.39%
Cc1ccc2c(Cl)cc(Cl)c(O)c2n1 [Chlorquinaldol] | 41.21%
C[N+](C)(C)CCO [Choline Chloride] | 79.39%
O=C(O)c1cc(=O)c2ccccc2o1 [Chromocarb] | 81.21%
CCOC(=O)[C@H](CCc1ccccc1)N[C@H]1CCCN2CCC[C@@H](C(=O)O)N2C1=O [Cilazapril Monohydrate] | 112%
CC(C)[C@H]1C(=O)N[C@@H](CCCN=C(N)N)C(=O)NCC(=O)N[C@@H](CC(=O)O)C(=O)N[C@H](Cc2ccccc2)C(=O)N1C [Cilengitide] | 61.11%

SMILES | Relative cell viability (%)
COCCOC(=O)C1=C(C)NC(C)=C(C(=O)OC/C=C/c2ccccc2)C1c1cccc([N+](=O)[O-])c1 (stereo not drawn) [Cilnidipine] | 69.63%
O=C1CCc2cc(OCCCCc3nnnn3C3CCCCC3)ccc2N1 [Cilostazol] | 80.53%
CN/C(=N/CCSCc1nc[nH]c1C)NC#N [Cimetidine] | 97.03%
C[C@@H](NCCCc1cccc(C(F)(F)F)c1)c1cccc2ccccc12 [Cinacalcet HCl] | 2.648%
O=C(O)c1cc(-c2ccccc2)nc2ccccc12 [Cinchophen] | 89.39%
COc1cc(/C=C/C(=O)N2CCN(CC(=O)N3CCCC3)CC2)cc(OC)c1OC [Cinepazide maleate] | 86.89%
CC(C)(Oc1ccc(C2CC2(Cl)Cl)cc1)C(=O)O (stereo not drawn) [Ciprofibrate] | 34.47%
CN1CCC[C@@H]1CCO[C@](C)(c1ccccc1)c1ccc(Cl)cc1 [Clemastine Fumarate] | 16.95%
CCCC(=O)OCOC(=O)C1=C(C)NC(C)=C(C(=O)OC)C1c1cccc(Cl)c1Cl (stereo not drawn) [Clevidipine Butyrate] | 112%
Cc1cn([C@H]2O[C@@H](CO)[C@H](O)[C@H]2F)c(=O)[nH]c1=O [Clevudine] | 97.09%
CC(C)(C)C(=O)C(Oc1ccc(Cl)cc1)n1ccnc1 (stereo not drawn) [Climbazole] | 83.94%
CCCCCCCCCCCCCCCC(=O)O[C@@H]1[C@@H](O)[C@@H](O)[C@@H]([C@H](NC(=O)[C@@H]2C[C@@H](CCC)CN2C)[C@H](C)Cl)O[C@@H]1SC [Clindamycin palmitate HCl] | 40.29%
Nc1nc(Cl)nc2c1ncn2[C@@H]1O[C@H](CO)[C@@H](O)[C@@H]1F [Clofarabine] | 43.15%
CC(C)(Oc1ccc(Cl)cc1)C(=O)O [Clofibric Acid] | 90.303%
Nc1cc(C(Cl)=C(Cl)Cl)c(S(N)(=O)=O)cc1S(N)(=O)=O [Clorsulon] | 49.03%
CC(C)c1nc(CN(C)C(=O)N[C@@H](CCN2CCOCC2)C(=O)N[C@H](CC[C@H](Cc2ccccc2)NC(=O)OCc2cncs2)Cc2ccccc2)cs1 [Cobicistat (GS-9350)] | 63.59%
Cc1nc2c([nH]1)-c1ccccc1N(C(=O)c1ccc(NC(=O)c3ccccc3-c3ccccc3)cc1)CC2 [Conivaptan HCl] | 109%
O=c1ccc2ccccc2o1 [Coumarin] | 71.21%
CC1(COc2ccc3c(c2)ncn3-c2ccc3cccc(N4CCC(N)CC4)c3n2)COC1 [Crenolanib (CP-868596)] | 11.17%
CN(C)c1ccc(C(=C2C=CC(=[N+](C)C)C=C2)c2ccc(N(C)C)cc2)cc1 [Crystal Violet] | 4.52%
COc1cc(/C=C/C(=O)CC(=O)/C=C/c2ccc(O)c(OC)c2)ccc1O [Curcumin] | 46.19%

SMILES | Relative cell viability (%)
CC1CC(OC(=O)C(O)c2ccccc2)CC(C)(C)C1 (stereo not drawn) [Cyclandelate] | 65.76%
CN(C)CCC=C1c2ccccc2C=Cc2ccccc21 [Cyclobenzaprine HCl] | 39.39%
O=P1(N(CCCl)CCCl)NCCCO1 (stereo not drawn) [Cyclophosphamide Monohydrate] | 130.7%
CN1CCC(=C2c3ccccc3C=Cc3ccccc32)CC1 [Cyproheptadine HCl] | 44.58%
CC(=O)O[C@]1(C(C)=O)CC[C@H]2[C@@H]3C=C(Cl)C4=CC(=O)[C@@H]5C[C@@H]5[C@]4(C)[C@H]3CC[C@@]21C [Cyproterone Acetate] | 132.9%
Nc1nc(N)nc(NC2CC2)n1 [Cyromazine] | 68.48%
NCCS [Cysteamine HCl] | 89.39%
CC(C)(CO)[C@@H](O)C(=O)NCCCO [D panthenol] | 121.4%
OC[C@@H](O)[C@@H](O)[C@H](O)[C@H](O)CO [D-Mannitol] | 114.9%
CCCCCCOC(=O)NC(=N)c1ccc(NCc2nc3cc(C(=O)N(CCC(=O)OCC)c4ccccn4)ccc3n2C)cc1 [Dabigatran Etexilate] | 102%
CC(C)(C)c1nc(-c2cccc(NS(=O)(=O)c3c(F)cccc3F)c2F)c(-c2ccnc(N)n2)s1 [Dabrafenib (GSK2118436)] | 37.38%
CN(C)/N=N/c1[nH]cnc1C(N)=O [Dacarbazine] | 91.43%
COc1cc2ncnc(Nc3ccc(F)c(Cl)c3)c2cc1NC(=O)/C=C/CN1CCCCC1 [Dacomitinib (PF299804, PF299)] | 11.17%
CN(C)[C@@H](CCOc1cccc2ccccc12)c1ccccc1 [Dapoxetine HCl] | 44.92%
Cc1nc(Nc2ncc(C(=O)Nc3c(C)cccc3Cl)s2)cc(N2CCN(CCO)CC2)n1 [Dasatinib Monohydrate] | 20.09%
COc1cccc2c1C(=O)c1c(O)c3c(c(O)c1C2=O)C[C@@](O)(C(C)=O)C[C@@H]3O[C@H]1C[C@H](N)[C@H](O)[C@H](C)O1 [Daunorubicin HCl] | 12.62%
CNC(=O)c1ccc(Nc2ncc(C(F)(F)F)c(NCc3nccnc3N(C)S(C)(=O)=O)n2)cc1 [Defactinib (VS-6063, PF-04554878)] | 67.52%
CC(=O)OCC(=O)[C@@]12N=C(C)O[C@@H]1C[C@H]1[C@@H]3CCC4=CC(=O)C=C[C@]4(C)[C@H]3[C@@H](O)C[C@@]12C [Deflazacort] | 91.95%
CN(C)[C@@H]1C(O)=C(C(N)=O)C(=O)[C@@]2(O)C(O)=C3C(=O)c4c(O)ccc(Cl)c4[C@@H](O)[C@H]3C[C@@H]12 [Demeclocycline HCl] | 74.85%
C[C@H](CCC(=O)O)[C@H]1CC[C@H]2[C@@H]3CC[C@@H]4C[C@H](O)CC[C@]4(C)[C@H]3C[C@H](O)[C@]12C [Deoxycholic acid] | 90.6%
